These results are taken from ChEMBL document CHEMBL3861981 (J Med Chem, 2016).

Data set [1] can be described thus: Cardiotoxicity in rabbit heart assessed as change in sinoatrial node recovery time at 10 uM perfused for 60 mins measured every 10 mins during perfusion by electrophysiology method relative to control. Conditions: 1 h. The class given is toxicity, tissue-based, Oryctolagus cuniculus.
Data set [2] can be described thus: Cardiotoxicity in anesthetized rabbit assessed as prolongation of QTcv interval at 30 mg/kg, iv administered as 10 mins infusion by electrophysiology assay. The data set is classed as toxicity, organism-based, Oryctolagus cuniculus. To be noted: in vivo.
Data set [3] can be described thus: Plasma concentration in rabbit at 30 mg/kg, iv administered as 10 mins infusion measured after 60 mins. The class given is ADME, organism-based, Oryctolagus cuniculus.
Data set [4] can be described thus: Cytotoxicity against human HEK293T cells assessed as decrease in cell viability.
Another data set concerns Salmonella typhimurium. The data set can be described thus: Genotoxicity in Salmonella typhimurium in absence of S9 fraction by Ames test. The data set is classed as toxicity, organism-based. Conditions: salmonella enterica subsp. enterica serovar typhimurium. Background: In the Ames test, an excess of revertant colonies over the control signals mutagenicity.
The next data set relates to Hepatitis C virus. The data set is described as follows: Antiviral activity against HCV genotype 2a JHF-1 in HCV replicon cells assessed as reduction in viral RNA replication by luciferase reporter gene assay. To be noted: genotype 2a JFH-1. A general note: A replicon is a self-replicating genome or part of one, used to study replication in cells.
Data set [5] can be described thus: Cardiotoxicity in anesthetized rabbit assessed as effect on QRS interval at 30 mg/kg, iv administered as 10 mins infusion measured up to 60 mins post dose by electrophysiology assay. The data set is classed as toxicity, organism-based, Oryctolagus cuniculus. To be noted: in vivo.
Data set [6] in a line: Toxicity in dog at 20 to 200 mg/kg administered as single dose. Conditions: in vivo. The data set is classed as organism-based, Canis lupus familiaris.
A short description of data set [7]: Cardiotoxicity in rabbit heart assessed as change in heart rate at 10 uM perfused for 20 mins measured for 1 min by electrophysiology method relative to control. The class given is toxicity, tissue-based, Oryctolagus cuniculus.
A further data set has as its target T1, Neutrophil elastase (Homo sapiens, UniProt P08246).
T1 sequence (P08246 whole entry): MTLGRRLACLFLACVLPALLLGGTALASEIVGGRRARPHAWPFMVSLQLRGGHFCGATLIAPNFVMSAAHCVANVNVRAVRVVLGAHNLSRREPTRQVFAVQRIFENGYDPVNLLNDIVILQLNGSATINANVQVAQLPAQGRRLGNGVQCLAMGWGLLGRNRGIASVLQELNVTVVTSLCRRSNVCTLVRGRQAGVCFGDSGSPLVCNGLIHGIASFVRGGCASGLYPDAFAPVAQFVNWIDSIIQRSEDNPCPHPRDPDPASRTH
The data set is described as follows: Inhibition of human leukocyte elastase.

A short description of data set [8]: Cardiotoxicity in rabbit heart assessed as change in heart rate at 10 uM perfused for 60 mins measured every 10 mins during perfusion by electrophysiology method relative to control. Conditions: 1 h. The data set is classed as toxicity, tissue-based, Oryctolagus cuniculus.

Take `COc1cnc(O[C@@H]2C[C@@H](C(=O)N[C@]3(C(=O)NS(=O)(=O)C4CC4)C[C@H]3C3CC3)N(C(=O)[C@@H](NC(=O)O[C@H](C)C(F)(F)F)C3CCCCC3)C2)c2cc(Cl)ccc12`: the Activity in data set [1] is 22%; in data set [2], “Non-Toxic”; in the data set on Salmonella typhimurium, “Non-Toxic”; in data set [5] it was “Non-Toxic”; in [6], “Non-Toxic”; in data set [7] it was -11%. Besides, the Activity in data set [8] was -16%. The compound further registered a concentration at 1 h in data set [3] of 253 µM. In addition, the CC50 in [4] fell in the range of 8 to 14 µM. Also, in the data set on Hepatitis C virus, the EC50 amounted to 0.136 µM. Further, on Neutrophil elastase, the midpoint of inhibition, the IC50, lay at 21 µM.

As usually defined, the CC50 is the concentration giving 50% cytotoxicity. The EC50 is the concentration needed to bring the measured effect to its halfway point. As usually defined, the IC50 is the concentration that inhibits the measured activity by half.
